Measurements as given in patent publication US5578496A, “Detection of autoantibodies associated with the disease myasthenia gravis” (Board of Regents, Baylor College of Medicine, priority 1994, dated 1996).
Where a SMILES comes first, the peptide text is derived from it. Bridges are numbered along the chain shown (N, C = ends).

Key:
[1] = system: experimental autoimmune myasthenia gravis (EAMG); assay: Electromyography (repetitive nerve stimulation) for electrophysiological EAMG after immunization with Torpedo AChR; type: in vivo, C57/BL6 mice
Method: Six weeks old C57/BL6 mice were purchased from Charles River Breeding Laboratories (Wilmington, Mass.). Preimmune sera were obtained from the mice for use as controls in subsequent antibody binding assays. […] Then, on day 0, the mice were immunized subcutaneously in one hind footpad and intramuscularly in the same side shoulder with 20 μg of Torpedo AChR in 100 μl emulsion containing equal volumes of complete Freund's adjuvant and PBS. Thirty days later, the mice were immunized with a similar dose of the receptor in the opposite footpad and shoulder. On the 37th day, test bleeds were obtained from the mice for determination of the antibody titers. Electrophysiological studies were performed on the 38th and 39th days. Finally, the mice were sacrificed on the 40th day and lymph node cells were obtained for T cell studies. To document the electrophysiological evidence of EAMG, amplitudes of serial muscle action potentials were measured by electromyography (EMG) during the repetitive stimulation of the nerve in immunized mice, using the Mystro EMG system (TECA Corporation). A pair of wire electrodes were surgically implanted, encircling the sciatic nerve, two days before EMG. The nerve was stimulated through the implanted electrodes by 3 Hz trains of supramaximal electric current with a duration of 200 microseconds. The corresponding muscle action potentials were recorded with an electrode subcutaneously inserted over the gastrocnemius muscle. A reference electrode was placed at the ankle. Ether inhalation was used during the surgical and recording procedures. […] Students' t-test was used to analyze the differences of amplitude changes between the two groups. A typical myasthenic response of a greater than 10% decrement was considered to constitute an electrophysiological evidence of EAMG. The frequency of electrophysiological EAMG was calculated in each group and analyzed by chi-square test.

[2] = system: peptide α125-148; assay: Radioimmunoassay of anti-AChR antisera from pretreated mice: antibody binding to peptide α125-148; type: in vivo, C57/BL6 mice
Method: Six weeks old C57/BL6 mice were purchased from Charles River Breeding Laboratories (Wilmington, Mass.). Preimmune sera were obtained from the mice for use as controls in subsequent antibody binding assays. After 2-weeks rest, the mice were divided into three groups which received, at eleven, seven and three days before immunization with AChR, an intraperitoneal injection (5 μg in 25 μl of PBS [0.15M NaCl in 0.01M sodium phosphate buffer, pH 7.2]) of either the mPEG-(α125-148) conjugate (Group 1), mPEG-nonsense peptide conjugate (Group 2) or unaltered free peptide α125-148 (Group 3) (FIG. 5). Then, on day 0, the mice were immunized subcutaneously in one hind footpad and intramuscularly in the same side shoulder with 20 μg of Torpedo AChR in 100 μl emulsion containing equal volumes of complete Freund's adjuvant and PBS. Thirty days later, the mice were immunized with a similar dose of the receptor in the opposite footpad and shoulder. On the 37th day, test bleeds were obtained from the mice for determination of the antibody titers. Electrophysiological studies were performed on the 38th and 39th days. Finally, the mice were sacrificed on the 40th day and lymph node cells were obtained for T cell studies.
One mg of the synthetic peptide was dissolved in 50 μl dimethylformamide and then diluted with PBS to 25 μg/ml. A solution of Torpedo AChR in PBS was prepared to contain 2.5 μg/ml. Aliquots (50 μl/well) of the peptide or AChR solutions were added to a 96-well microtiter plate (Falcon Micro Test III flexible assay plate, Becton Dickinson, Oxcard, Calif.) and the plates were incubated at room temperature overnight. After washing 3 times with PBS, the plates were blocked with 0.25% bovine serum albumin (BSA [bovine serum albumin]) in PBS (50 μl/well) at 37° C. for 90 minutes. The plates were washed again 5 times with PBS and to each well was added 50 μl of the serum from AChR-immunized mice, pre-diluted with PBS containing 0.10% BSA, and the plates were covered and allowed to stand at room temperature overnight. After 5 washes with PBS, 50 μl of rabbit IgG antibodies (2.5 μg/ml) against mouse IgG and IgM (Accurate Chemical Scientific Corporation, Westbury, N.Y.) was added to each well and the plates were incubated at 37° C. for 3 hours. The plates were then washed 5 times with PBS and ^125 I-labeled protein A (2×10^5cpm in 50 μl of PBS-0.1% BSA) was added to each well. The plates were incubated for 3 hours at room temperature, after which they were washed and the wells were cut out and counted for bound radioactivity. Pre-immune serum samples, obtained from the mice prior to any experimental treatments, were used as controls to correct for non-specific binding.

[3] = system: antibodies against human ACHR α chain peptides; assay: Binding of anti-peptide antibodies to the peptides on Co-Bind plate; design: species or system mice; conditions: antisera diluted 1:500 (v/v) with PBS/0.05% casein; corrected for nonspecific binding to casein
Method: Anti-peptide antibodies were raised in outbred mice by immunization in the hind footpads of 50 μg of synthetic peptide in 100 μl emulsion prepared from equal volumes of PBS and Freund's complete adjuvant. The immunizations were done on day 1, day 15, day 30 and day 45. Rabbit immune IgG fractions with specificity against human IgG and human IgM and mouse IgG and IgM were obtained from DAKO Co. (DAKO-immunoglobulins a/s, Denmark) and Accurate Chemical Scientific Corp. (Westbury, N.Y.), respectively.
1.0 mg of peptide was dissolved in 5 μl of dimethylformamide and then diluted to 50 μg/ml with 0.15M NaCl in 0.01M sodium phosphate buffer, pH 7.2, containing 0.01% thimerosal (PBS). Aliquots of the peptide solution, were applied to wells of the 96-well Co-Bind plate. The plates were incubated at room temperature overnight with continuous gentle rocking. After washing three times with PBS, the wells were quenched (3 hrs., room temperature) with 0.2 ml of 1.0M glycine-NaOH, pH 7.2. After washing the wells three times with PBS, an aliquot (100 μl) of a 0.1% solution of casein in PBS were added to each well and the plates were incubated at 37° C. for 90 min to block the remaining reactive groups on the wells. The plates were then washed three times with PBS and incubated (37° C., 4 hrs) with 100 μl of plasma or mouse antiserum (1:200 or 1:500 dilution with PBS containing 0.1% casein). For binding to peptide α182-198, the plates were blocked with, and plasma were diluted in, 0.5% (instead of 0.1%) casein in PBS. After washing four times with PBS, the plates were incubated (4° C., overnight) with 100 μl of rabbit anti-human (IgG+IgM) or anti-mouse (IgG+IgM) (2.5 μg/ml) in PBS containing 0.1% casein. The plates were washed four times with PBS and incubated (3 hrs., room temperature) with ^125 I-labeled protein A (2×10^5 cpm) in 100 μl of PBS-0.1% casein. After washing five times with PBS, bound radioactivity was removed from the wells, by the addition of 100 μl of 5% SDS in 0.2N NaOH. The plates were allowed to stand for 20 min at room temperature and the solutions were then transferred quantitatively to small test tubes for counting. This procedure was repeated three times, and the solutions in each case were added to the respective tubes. The samples were counted on a Beckman 4000 gamma counter. The radioactivity bound by three unrelated proteins (casein, cytochrome C and bovine serum albumin) and a nonsense peptide (ESSGTGIESSGTGI) (Atassi et al. 1987) were used as controls to correct for nonspecific binding. It should be noted that in other experiments, in which the plates were blocked and all dilutions were made with PBS containing human adult hemoglobin or bovine serum albumin, the non-specific binding was considerably higher than when casein was used.
To confirm that the synthetic human AChR peptides can be coupled to Co-Bind plate, they were used to raise anti-peptide antibodies in mice. The peptides were bound onto the well of Co-Bind plates, followed by reaction with the respective anti-peptide antibody, pre-diluted 1:500 (v/v) with PBS/0.05% casein.

[4] = 5 μg i.p. at 11, 7 and 3 days before immunization with Torpedo AChR, EMG on days 38-39

Row | Compound | Antibody Binding to immunizing Peptide (CPM) [3] [CPM] | also measured
1 | CC[N+](C)(C)c1cccc(O)c1 [edrophonium chloride, reference compound] | – | decremental amplitude after edrophonium ([1]; EAMG-positive mouse with -33% decrement, 3 minutes after i.p. injection of 250 μg): -13%; reversibility of typical myasthenic decremental response ([1]; i.p. injection of 250 μg): reversible
2 | CC[C@H](C)[C@H](NC(=O)CNC(=O)[C@H](CC(C)C)NC(=O)[C@H](CCCCN)NC(=O)[C@H](CCSC)NC(=O)[C@@H](NC(=O)[C@@H]1CSSC[C@H](NC(=O)[C@H](Cc2ccc(O)cc2)NC(=O)[C@H](CO)NC(=O)[C@@H](N)CCCCN)C(=O)N[C@@H](CCC(=O)O)C(=O)N[C@@H]([C@@H](C)CC)C(=O)N[C@@H]([C@@H](C)CC)C(=O)N[C@@H](C(C)C)C(=O)N[C@@H]([C@@H](C)O)C(=O)N[C@@H](Cc2c[nH]cn2)C(=O)N[C@@H](Cc2ccccc2)C(=O)N2CCC[C@H]2C(=O)N[C@@H](Cc2ccccc2)C(=O)N[C@@H](CC(=O)O)C(=O)N[C@@H](CCC(N)=O)C(=O)N[C@@H](CCC(N)=O)C(=O)N[C@@H](CC(N)=O)C(=O)N1)[C@@H](C)O)C(=O)O [α125-148] (H-KSYCEIIVTHFPFDQQNCTMKLGI-OH; disulfide 4-18) | – | antibody binding to peptide α125-148, mean net cpm ± standard deviation ([2]; anti-AChR antisera of individual mice, day 37 bleeds): 3626+2214 cpm; antibody binding to peptide α125-148, pooled antisera in serial dilutions ([2]; pooled serum of each group, various dilutions): consistently greater than the other two controls; antibodies bound to peptide α125-148 in anti-AChR antisera ([2]; pretreatment prior to immunization with Torpedo AChR): no decrease; mean amplitude change of muscle action potentials [1, 4]: -15.9%; mice showing a decremental response greater than 10% [1, 4]: 56%
3 | α1-16: synthetic peptide, residues α1-16 of human AChR α-chain (SEHETRLVAKLFKDYS) | 78940 | –
4 | α23-38: synthetic peptide, residues α23-38 of human AChR α-chain (EDHRQVVEVTVGLQLI) | 71893 | –
5 | α34-49: synthetic peptide, residues α34-49 of human AChR α-chain (GLQLIQLINVDEVNQI) | 62360 | –
6 | α45-60: synthetic peptide, residues α45-60 of human AChR α-chain (EVNQIVTTNVRLKQQW) | 82404 | –
7 | α56-71: synthetic peptide, residues α56-71 of human AChR α-chain (LKQQWVDYNLKWNPDD) | 36038 | –
8 | α67-82: synthetic peptide, residues α67-82 of human AChR α-chain (WNPDDYGGVKKIHIPS) | 22884 | –
9 | α78-93: synthetic peptide, residues α78-93 of human AChR α-chain (IHIPSEKIWRPDLVLY) | 4433 | –
10 | α89-104: synthetic peptide, residues α89-104 of human AChR α-chain (DLVLYNNADGDFAIVK) | 29199 | –
11 | α100-115: synthetic peptide, residues α100-115 of human AChR α-chain (FAIVKFTKVLLQYTGH) | 57717 | –
12 | α134-150: synthetic peptide, residues α134-150 of human AChR α-chain (HFPFDEQNGSMKLGTWT) | 52077 | –
13 | α146-162: synthetic peptide, residues α146-162 of human AChR α-chain (LGTWTYDGSVVAINPES) | 13649 | –
14 | α158-174: synthetic peptide, residues α158-174 of human AChR α-chain (INPESDQPDLSNFMESG) | 14799 | –
15 | α170-186: synthetic peptide, residues α170-186 of human AChR α-chain (FMESGEWVIKESRGWKH) | 71323 | –
16 | α194-210: synthetic peptide, residues α194-210 of human AChR α-chain (PDTPYLDITYHFVMQRL) | 66804 | –
